Results as given in patent publication US20220304998A1, “REBAMIPIDE FOR USE IN PREVENTION AND TREATMENT OF CROHN'S DISEASE” (SQUARE POWER LTD., priority 2019, published 2022).

How the values were obtained:
[1] = test system: patients suffering from Crohn's disease; assay: Clinical course, response and tolerability in Crohn's disease patient case reports; assay type: in vivo, human; settings: for adverse reaction: affecting skin and joints
Excerpt: (§1) Several patients suffering from Crohn's disease for at least 5 years without sufficient response to standard treatment were given rebamipide tablets three times a day. […] The severity of the disease was quantified by the CDAI, and the level of inflammation by fecal calprotectin.

[2] = test system: patients suffering from Crohn's disease; assay: Crohn's Disease Activity Index (CDAI) in Crohn's disease patients given rebamipide tablets; assay type: in vivo, human
Excerpt: as §1
Crohn's Disease Activity Index (CDAI) is a research tool used to quantify the symptoms of patients with Crohn's disease. It consists of eight factors, each summed after adjustment with a weighting factor. Remission of Crohn's disease is defined as CDAI below 150, whereas severe disease is defined as a value of greater than 450.

[3] = test system: Calprotectin (FC); assay: Fecal calprotectin in stool samples by ELISA kit (EK-CAL, Bühlmann); assay type: in vivo, human; settings: for fecal calprotectin level: Example 1; for calprotectin: Example 2
Excerpt: as §1
Calprotectin (FC) is a small calcium-binding protein that is used as a biomarker for inflammatory bowel diseases since its fecal concentration correlates well with the disease severity. Calprotectin values lower than 200 μg/g feces are considered the normal level. It was measured in stool samples using commercially available enzyme-linked immunosorbent assay (ELISA) kit (EK-CAL, Bühlmann).

[4] = oral administration; cited from earlier work
[5] = summary of patient sample, add-on to corticosteroid

Cn1cnc([N+](=O)[O-])c1Sc1ncnc2nc[nH]c12 [azathioprine]
adverse reaction leading to discontinuation ([1]; Example 3, discontinued after two weeks): acute pancreatitis

CCCC1O[C@@H]2C[C@H]3[C@@H]4CCC5=CC(=O)C=C[C@]5(C)[C@H]4[C@@H](O)C[C@]3(C)[C@]2(C(=O)CO)O1 (stereo partly shown) [budesonide]
duration of maintained remission ([1]; Example 3, therapy with budesonide and mesalazine): about 10 years

C[C@H]1C[C@@H]2[C@H]([C@@H](O)C[C@@]3(C)[C@H]2CC[C@]3(O)C(=O)CO)[C@@]2(C)C=CC(=O)C=C12 [methylprednisolon]
treatment outcome of corticosteroid alone after relapse ([1]; Example 1, methylprednisolon 24 mg/day before rebamipide): without success

C[C@]12C=CC(=O)C=C1CC[C@@H]1[C@@H]2C(=O)C[C@@]2(C)[C@H]1CC[C@]2(O)C(=O)CO [prednisone]
treatment outcome of corticosteroid alone after relapse ([1]; Example 2, prednisone 40 mg/day before rebamipide): not able to reach remission

O=C(NC(Cc1cc(=O)[nH]c2ccccc12)C(=O)O)c1ccc(Cl)cc1 (stereo not shown) [rebamipide, 2-[(4-chlorobenzoyl)amino]-3-(2-oxo-1H-quinolin-4-yl)propanoic acid]
CDAI ([2]; Example 1, person, Crohn's ileocolitis, rebamipide 100 mg three times daily with methylprednisolon 24 mg/day, after 6 weeks, relapse value 358): 181 points
CDAI ([2]; Example 1, after another 6 weeks, corticosteroid dose reduced to half, rebamipide 100 mg three times daily): 73 points
CDAI ([2]; Example 2, person, Crohn's ileocolitis, rebamipide 200 mg t.i.d. add-on to prednisone 40 mg/day, after 6 weeks, relapse value 479): 225 points
CDAI ([2]; Example 2, after another 6 weeks, rebamipide 100 mg t.i.d., prednisone tapered from 30 mg/day by 10 mg every 2 weeks): 84 points
CDAI ([2]; Example 3, person, Crohn's ileitis, rebamipide 100 mg three times daily with prednisone 50 mg/day, 25 mg after 14 days, after another 6 weeks, initial value 377): 98 points
fecal calprotectin level ([3]; after another 6 weeks, corticosteroid dose reduced to half, rebamipide 100 mg three times daily): 63 µg/g
fecal calprotectin level ([3]; rebamipide 100 mg three times daily with methylprednisolon 24 mg/day, after 6 weeks, relapse value up to 1939): 228 µg/g
calprotectin ([3]; after another 6 weeks, rebamipide 100 mg t.i.d., prednisone tapered from 30 mg/day by 10 mg every 2 weeks): 110 µg/g
calprotectin ([3]; rebamipide 200 mg t.i.d. add-on to prednisone 40 mg/day, after 6 weeks, relapse value 2215): 356 µg/g
calprotectin level ([3]; Example 3, rebamipide 100 mg three times daily with prednisone 50 mg/day, 25 mg after 14 days, after another 6 weeks, initial value up to 1051): 122 µg/g
effect on calprotectin levels [3, 5]: normalize calprotectin levels
disease activity on rebamipide only after corticosteroid withdrawal ([1]; Example 1, patient continued only rebamipide): No worsening in disease activity
disease activity on rebamipide only after prednisone discontinuation ([1]; Example 2, patient continued only rebamipide 100 mg t.i.d.): No worsening in disease activity
clinical symptoms ([1]; Example 3, after 14 days of rebamipide 100 mg three times daily with prednisone 50 mg/day): alleviation of the clinical symptoms
disease activity on rebamipide only after prednisone withdrawal ([1]; Example 3, patient continued only rebamipide): No worsening in disease activity
maintenance of remission ([1]; rebamipide alone, long-term): able to maintain remission
tolerability of long-term therapy ([1]; rebamipide alone, long-term): well tolerated
remission in patients who exhausted standard treatment options [1, 5]: induce remission
absorption in the GI tract [4]: poorly absorbed

adalimumab
adverse reaction ([1]; Example 1): immunological response had developed

infliximab: monoclonal antibody against TNFα
adverse reaction ([1]; Example 1): immunological response had developed
